# According to patent publication US20250000869A1, “TOPICAL COMPOSITIONS OF 2-PHENYL-3, 4-DIHYDROPYRROLO [2, L-F] [1, 2, 4] TRIAZINONE DERIVATIVES AND USES THEREOF” (TOPADUR PHARMA AG, priority 2021, published 2025):
# Test system: uPAR−/− mice
# Assay: Healing of full thickness excisional cutaneous wounds after topical, on wound administration
# Assay type: in vivo
# Excerpt: The urokinase-type plasminogen activator receptor deficient (uPAR−/−) mouse that reproduces cardinal features of SSc (dermal) vasculopathy and fibrosis is an animal model of systemic sclerosis that is considered as disease-relevant. The uPAR−/− mouse integrates apoptosis of dermal endothelial cells, a decreased density of dermal microvessels and endothelial to mesenchymal transition reflecting vasculopathy with dermal thickening, collagen accumulation, enhanced myofibroblast counts reflecting skin fibrosis. uPAR−/− induces and develops dermal and pulmonary fibrosis (Manetti M et al. Ann Rheum Dis. (2014) 73:1700-1709; Manetti M et al Ann Rheum Dis. (2017) 76:924-934; Schniering J et al., (2019) In Atlas of Ulcers in Systemic Sclerosis. Diagnosis and Management. Matucci-Cerinic M and Denton C P (eds). Springer, Chain, Switzerland, pp. 27-37).
# uPAR−/− mice were bred from mating of heterozygotes (uPAR+/−; obtained from Institute for Translational Neurology and Neurology Clinics, University of Munster, Germany). Pups were genotyped and uPAR−/− mice obtained at Mendelian frequency. Two full thickness, excisional cutaneous wounds (6 mm diameter corresponding to an area of 28.3 mm^2) were generated, symmetrically to the dorsum midline. To this end, at the day before surgery, mice were anaesthetized with Isoflurane and their dorsum was shaved using Veet® depilatory cream and clippers. At the next following day, preoperative analgesia was administered at 30 min before surgery consisting of 0.1 mg/kg of Buprenorphine and 5 mg/kg of Ketoprofen. Animals were anesthetized with Isoflurane. Two full thickness wounds (including epidermis, dermis, hypodermis, panniculus carnosus; depth about 500 μm) of 6 mm diameter each were created using a biopsy punch and scissors each with identical, at least 10 mm distance left or right from the dorsum midline. To minimize wound contraction, wounds were splinted using a silicon splint (Grace Bio-Labs silicone wound splints, red with suture sites, outer diameter×inner diameter×thickness 14 mm×7 mm×0.5 mm). Splints were kept in place using six interrupted surgical sutures (6/0 polyamide-Ethylon) and Superglue (ethyl 2-cyanoacrylate glue) (Park S A et al. Wound Repair Regen. (2014) 22(3):368-380; Park S A et al. Wound Repair Regen. (2015) 23(2):251-261).
# The cutaneous ulcers and the splint were protected using a plastic cover maintained using a non-woven adhesive dressing (Hypafix® (Smith & Nephew)) and a semiocclusive adhesive transparent dressing (Tegaderm™, (3M™)). Ketoprofen (5 mg/kg) and Buprenorphine (0.05 mg/kg) were administered for 3 days and then Buprenorphine (0.05 mg/kg) as needed. The estimated volume of a cutaneous ulcer was 28.3 mm^2 area×0.5 mm depth=14.15 mm^3 or 14.15 μl. […]
structure (smiles),measurement,setting,value
"CCCOc1ccc(S(=O)(=O)N2CCC(CCO[N+](=O)[O-])CC2)cc1-c1nn2c(CCC)c(/C=N/O)c(C)c2c(=O)[nH]1 [Compound 1, 2-[1-(3-{6-[(1E)-(hydroxyimino)methyl]-5-methyl-4-oxo-7-propyl-3H,4H-pyrrolo[2,1-f][1,2,4]triazin-2-yl}-4-propoxybenzenesulfonyl)piperidin-4-yl]ethyl nitrate]",acceleration of wound closure versus Vehicle,"uPAR−/− mice, based on means of % Wound Closure from day 5 to day 8",about 1 day
same,AUEC for % wound closure compared to vehicle,"uPAR−/− mice, day 0-7",significant increase
same,healing of full thickness excisional cutaneous wounds (conclusion),"uPAR−/− mice, once daily topical, in form of Topical Composition A2",improved
same,part of wound closure delay associated with uPAR deficiency restored,"uPAR−/− vs uPAR+/+ mice, from AUEC (Table 6)",about half
